Where “and” joins values, the source holds several entries; their conditions need not be identical. Identical values can stand only once.
Legend:
[1] = n-octanol/phosphate buffer partition coefficient; assay type: physicochemical; settings: n-octanol / 0.1 M phosphate buffer pH 7.4; read-out: n-octanol/phosphate buffer partition coefficient (log P)
Protocol: The n-octanol/phosphate buffer partition coefficients of [^77Br]2 were 2.36 ± 0.06 which were lower than [^77Br]3 (3.02 ± 0.04). These values are lower than radioiodinated compounds, [^125I]4 and [^125I]5 at 2.71 ± 0.03 and 3.19 ± 0.17, respectively.
Partition coefficients of [^77Br]2 and [^77Br]3 into n-octanol and 0.1 M phosphate buffer (PB) pH 7.4 were determined using the method described previously. The measurement was performed in quadruplicate. The partition coefficient was determined by calculating the ratio of cpm/mL of n-octanol to that of buffer and expressed as log P. Radioactivity of each layer were counted by a gamma counter.

[2] = In vitro stability in 0.1 M PBS (pH 7.4); assay type: physicochemical; settings: 24 h incubation at 37 °C, purity by TLC
Protocol: The stability of [^77Br]2 and [^77Br]3 in 0.1 M phosphate-buffered saline (PBS) (pH 7.4) was high (93.6 ± 0.9% and 93.0 ± 0.6%, respectively). There was no significant decomposition after 24 h incubation at 37 °C for either radiotracer.
The stability of radiolabeled compounds, [^77Br]2 and [^77Br]3, were analyzed as described previously. The purities radiolabeled compounds were determined by TLC using chloroform/methanol = 5/1 and 20/1 as a developing solvent for [^77Br]2 and [^77Br]3, respectively. The results were confirmed by RP-HPLC.

[3] = tested on: BxPC3-luc cells; experiment: In vitro blocking study; assay type: cell-based; settings: inhibitor 1, 2 or 3 at 10 µM, 10 min pretreatment
Protocol: Blocking studies using 1, 2, and 3 were performed (Fig. 6). Pretreatment of an excess amount of 1 or 2 decreased uptakes of [^77Br]2 in BxPC3-luc cells. The uptake of [^77Br]3 was inhibited by a pretreatment using 1 or 3 in the same way.
Figure 6 In vitro blocking studies of (a) [^77Br]2 and (b) [^77Br]3 in BxPC3-luc and MCF7 cells. Data were presented as mean ± SD for three samples. Significance was determined using a one-way ANOVA followed by Dunnett’s post hoc test (^*p < 0.001, vs control [^77Br]2 or [^77Br]3).
For in vitro blocking experiment, inhibitor (1, 2, or 3 with final concentration 10 µM) in 1 mL of medium without FBS was added to wells containing 2 × 10^5 cells/well. After 10 min incubation, [^77Br]2 or [^77Br]3 (3.7 kBq/well) in 1 mL of medium without FBS was added to each well. Radioactivity and protein concentration in the cells were determined by the same method above-mentioned.

[4] = Biodistribution in ddY mice; assay type: in vivo; settings: i.v. co-injection
Protocol: In this study, to minimize both the number of mice consumed in the experiment and the potential for experimental errors, we co-injected radiobrominated and radioiodinated compounds into mice[30],[31]. High radioactivity in the liver, small intestine, and large intestine was observed.
(§1) Mice were intravenously injected via the tail with 100 µL of saline solution of [^77Br]2 and [^125I]4 or [^77Br]3 and [^125I]5 (74 kBq, respectively), containing 10% ethanol and 1% tween-80. The ddY mice were sacrificed at 10 min, 1, 4, and 24 h postinjection. Meanwhile, tumor-bearing mice were sacrificed at 1 h postinjection.
(§2) Tissues in mice were resected and weighed. The radioactivity of the tissues was counted by a gamma counter and counts were corrected for background radiation. The data were expressed as percent injection dose per gram tissue (%ID/g).

[5] = tested on: BxPC3-luc tumor; experiment: Biodistribution in BxPC3-luc tumor-bearing mice; assay type: in vivo, BALB/c nu/nu mice
Protocol: We investigated the biodistribution of the radiotracers in BxPC3-luc tumor-bearing mice by co-injecting [^77Br]2 with [^125I]4 (Table 3), and [^77Br]3 with [^125I]5 (Table 4).
Animal experiments were conducted in strict accordance with the Guidelines for the Care and Use of Laboratory Animals of Kanazawa University. The animal experimental protocols used were approved by the Committee on Animal Experimentation of Kanazawa University (Permit Number: AP-163766). The animals were housed with free access to food and water at approximately 23 °C with a 12 h light/dark schedule. ddY mice (six-week-old, male, 27–30 g) and BALB/c nu/nu mice (four-week-old, female, 12–17 g) were purchased from Japan SLC Inc. (Hamamatsu, Japan). For preparing the tumor-bearing mice, BxPC3-luc cells (5 × 10^6 cells) were subcutaneously injected into the left shoulder of BALB/c nu/nu mice. The tumor reached palpable size after two weeks of the inoculation.
as §1, §2

- logP [1]: 2.36 ± 0.06
- Stability in 0.1 M PBS (pH 7.4) [2]: 93.6 ± 0.9%
- Radioactivity in Blood ([4]; 10 min): 0.99 (0.03) %injected dose/gram tissue
- Radioactivity in Bone ([4]; 10 min): 2.81 (1.06) %injected dose/gram tissue
- Radioactivity in Brain ([4]; 10 min): 0.12 (0.01) %injected dose/gram tissue
- Radioactivity in Heart ([4]; 10 min): 4.41 (0.27) %injected dose/gram tissue
- Radioactivity in Kidney ([4]; 10 min): 15.61 (1.32) %injected dose/gram tissue
- Radioactivity in Large intestine ([4]; 10 min): 0.99 (0.10) %injected dose/gram tissue
- Radioactivity in Liver ([4]; 10 min): 12.49 (0.64) %injected dose/gram tissue
- Radioactivity in Lung ([4]; 10 min): 10.92 (0.55) %injected dose/gram tissue
- Radioactivity in Muscle ([4]; 10 min): 2.24 (0.18) %injected dose/gram tissue
- Radioactivity in Pancreas ([4]; 10 min): 4.18 (0.38) %injected dose/gram tissue
- Radioactivity in Small intestine ([4]; 10 min): 8.58 (2.18) %injected dose/gram tissue
- Radioactivity in Spleen ([4]; 10 min): 5.39 (0.40) %injected dose/gram tissue
- Radioactivity in Stomach ([4]; 10 min): 1.74 (0.15) %injected dose /organ
- Radioactivity in Blood ([4]; 1 h): 0.28 (0.06) %injected dose/gram tissue
- Radioactivity in Bone ([4]; 1 h): 1.15 (0.15) %injected dose/gram tissue
- Radioactivity in Brain ([4]; 1 h): 0.10 (0.01) %injected dose/gram tissue
- Radioactivity in Heart ([4]; 1 h): 1.15 (0.17) %injected dose/gram tissue
- Radioactivity in Kidney ([4]; 1 h): 10.12 (3.49) %injected dose/gram tissue
- Radioactivity in Large intestine ([4]; 1 h): 2.69 (0.65) %injected dose/gram tissue
- Radioactivity in Liver ([4]; 1 h): 4.26 (1.37) %injected dose/gram tissue
- Radioactivity in Lung ([4]; 1 h): 4.32 (0.84) %injected dose/gram tissue
- Radioactivity in Muscle ([4]; 1 h): 0.92 (0.04) %injected dose/gram tissue
- Radioactivity in Pancreas ([4]; 1 h): 2.98 (0.75) %injected dose/gram tissue
- Radioactivity in Small intestine ([4]; 1 h): 29.51 (7.92) %injected dose/gram tissue
- Radioactivity in Spleen ([4]; 1 h): 1.59 (0.28) %injected dose/gram tissue
- Radioactivity in Stomach ([4]; 1 h): 1.62 (0.55) %injected dose /organ
- Radioactivity in Blood ([4]; 4 h): 0.20 (0.03) %injected dose/gram tissue
- Radioactivity in Bone ([4]; 4 h): 1.50 (1.27) %injected dose/gram tissue
- Radioactivity in Brain ([4]; 4 h): 0.09 (0.00) %injected dose/gram tissue
- Radioactivity in Heart ([4]; 4 h): 0.58 (0.13) %injected dose/gram tissue
- Radioactivity in Kidney ([4]; 4 h): 4.33 (0.75) %injected dose/gram tissue
- Radioactivity in Large intestine ([4]; 4 h): 53.70 (8.89) %injected dose/gram tissue
- Radioactivity in Liver ([4]; 4 h): 3.44 (0.98) %injected dose/gram tissue
- Radioactivity in Lung ([4]; 4 h): 2.71 (1.06) %injected dose/gram tissue
- Radioactivity in Muscle ([4]; 4 h): 0.44 (0.07) %injected dose/gram tissue
- Radioactivity in Pancreas ([4]; 4 h): 1.63 (0.19) %injected dose/gram tissue
- Radioactivity in Small intestine ([4]; 4 h): 4.76 (0.89) %injected dose/gram tissue
- Radioactivity in Spleen ([4]; 4 h): 0.69 (0.24) %injected dose/gram tissue
- Radioactivity in Stomach ([4]; 4 h): 0.81 (0.21) %injected dose /organ
- Radioactivity in Blood ([4]; 24 h): 0.12 (0.02) %injected dose/gram tissue
- Radioactivity in Bone ([4]; 24 h): 0.55 (0.10) %injected dose/gram tissue
- Radioactivity in Brain ([4]; 24 h): 0.07 (0.00) %injected dose/gram tissue
- Radioactivity in Heart ([4]; 24 h): 0.29 (0.03) %injected dose/gram tissue
- Radioactivity in Kidney ([4]; 24 h): 0.21 (0.05) %injected dose/gram tissue
- Radioactivity in Large intestine ([4]; 24 h): 0.18 (0.03) %injected dose/gram tissue
- Radioactivity in Liver ([4]; 24 h): 0.29 (0.08) %injected dose/gram tissue
- Radioactivity in Lung ([4]; 24 h): 0.29 (0.05) %injected dose/gram tissue
- Radioactivity in Muscle ([4]; 24 h): 0.22 (0.02) %injected dose/gram tissue
- Radioactivity in Pancreas ([4]; 24 h): 0.41 (0.34) %injected dose/gram tissue
- Radioactivity in Small intestine ([4]; 24 h): 0.07 (0.01) %injected dose/gram tissue
- Radioactivity in Spleen ([4]; 24 h): 0.66 (0.77) %injected dose/gram tissue
- Radioactivity in Stomach ([4]; 24 h): 0.11 (0.01) %injected dose /organ
- Tumor-to-blood ratio of radioactivity ([5]; 1 h postinjection): 2.8
- Radioactivity in Stomach ([5]; i.v. co-injection, 1 h): 0.96 (0.20) %injected dose /organ
Compound: COCCOc1ccc2c(c1)ncn2-c1ccc2c([77Br])ccc(N3CCC(N)CC3)c2n1 [[^77Br]2, [^77Br]1-{5-Bromo-2-[5-(2-methoxyethoxy)-1H-benzo[d]imidazol-1-yl]quinoline-8-yl}piperidin-4-amine]
- Uptake in BxPC3-luc cells after pretreatment with excess inhibitor [3]: decreased
- Radioactivity in Blood ([5]; i.v. co-injection, 1 h): 0.58 (0.10) %injected dose/gram of tissue
- Radioactivity in Bone ([5]; i.v. co-injection, 1 h): 1.15 (0.09) %injected dose/gram of tissue
- Radioactivity in Brain ([5]; i.v. co-injection, 1 h): 0.14 (0.03) %injected dose/gram of tissue
- Radioactivity in BxPC3-luc tumor ([5]; i.v. co-injection, 1 h): 1.61 %injected dose/gram of tissue and 1.61 ± 0.24 %injected dose/gram of tissue and 1.61 (0.24) %injected dose/gram of tissue
- Radioactivity in Heart ([5]; i.v. co-injection, 1 h): 1.88 (0.33) %injected dose/gram of tissue
- Radioactivity in Kidney ([5]; i.v. co-injection, 1 h): 17.39 (4.03) %injected dose/gram of tissue
- Radioactivity in Large intestine ([5]; i.v. co-injection, 1 h): 3.22 (0.40) %injected dose/gram of tissue
- Radioactivity in Liver ([5]; i.v. co-injection, 1 h): 11.07 (1.04) %injected dose/gram of tissue
- Radioactivity in Lung ([5]; i.v. co-injection, 1 h): 10.31 (1.91) %injected dose/gram of tissue
- Radioactivity in Muscle ([5]; i.v. co-injection, 1 h): 0.94 (0.08) %injected dose/gram of tissue
- Radioactivity in Pancreas ([5]; i.v. co-injection, 1 h): 6.61 (1.00) %injected dose/gram of tissue
- Radioactivity in Small intestine ([5]; i.v. co-injection, 1 h): 51.52 (9.93) %injected dose/gram of tissue
- Radioactivity in Spleen ([5]; i.v. co-injection, 1 h): 2.94 (0.54) %injected dose/gram of tissue

From PMC6039436, “Radiobrominated benzimidazole-quinoline derivatives as Platelet-derived growth factor receptor beta (PDGFRβ) imaging probes” (Scientific Reports, 2018)
